Experimental data published in publication PMC6149814, “Enhanced Intestinal Permeability of Bufalin by a Novel Bufalin-Peptide-Dendrimer Inclusion through Caco-2 Cell Monolayer” (Molecules : A Journal of Synthetic Chemistry and Natural …, 2017).

Experiments:
Caco-2 cell monolayer = test: in vitro
Protocol: (§1) Caco-2 cells (4.0 × 10^5 per mL) at the logarithmic growth were seeded into the AP (apical) side of a 24-well Transwell™ plates (Corning Inc., Cambridge, MA, USA). DMEM solution was added into the apical (AP) side (0.5 mL) and basal (BL) side (1.0 mL) of the chamber, respectively. The cell culture was maintained at 37 °C under 90% humidity and 5% CO2. The medium was refreshed every two days in the first week, and then on every day the following week. […] The cell inserts were considered as qualified for trans-membrane transport evaluation only if the resistance reached above […].
(§2) On day 21, the culture medium was removed from the AP and BL sides of the trans-well filters. The Caco-2 monolayers were rinsed twice with pre-warmed HBSS (37 °C) and incubated for 20 min. Then HBSS was removed completely. The test solution of BFL or BPDI (was added to AP (0.4 mL) or BL side (3.2 mL), and then same volume of HBSS was added to the corresponding sides (BL or AP sides). Incubation continued at 37 °C for 180 min. To evaluate the permeability of test compounds across the cell monolayer, solutions from BL (0.4 mL) or AP (3.2 mL) side were collected at different time intervals (60, 120, and 180 min), and replaced with the same volume of HBSS. The collected solutions were lyophilized and stored under −80 °C before HPLC analysis. Experiments for each time point were repeated three times and were performed on the independent chamber.
(§3) Chromatographic analysis was performed using a Alltima TM C18 column (4.6× 250 mm, 5 μm) on an Agilent 1200 liquid chromatography system, equipped with a quaternary solvent delivery system, an auto-sampler and a DAD detector. The isocratic eluting solution consists of A: 0.2% phosphoric acid and B: acetonitrile (54:46, v/v); the detection wavelength and flow rate were set at 226 nm and 1.0 mL/min, respectively. The HPLC analysis will be run for 25 min.
(§4) Apparent permeability values (Papp) for the test compound was calculated according to the equation [22] Papp = (dQ/dt)/(AC0) where Papp is the apparent permeability (cm/s), dQ/dt is the appearance rate of the test compound on the receiver side (μg/s), A represents the surface area of carbon ester membrane (cm^2), and C0 is the initial concentration of compounds on the given sides (μg/L).

in vitro = settings: human
Protocol: as §1, §2, §3, §4

[1] = Cytotoxicity in Caco-2 cells by MTT assay; type: cell-based; settings: human
Protocol: The viability of Caco-2 cells were measured after treated for 180 min with Hanks’ balanced salts solution (HBSS) (negative control), paclitaxel (positive control, 25, 50, 75 and 100 μM), BFL (50, 75, 100 and 125 μM) and BPDI (containing BFL 50, 75, 100 and 125 μM), respectively.
The cytotoxicities of free BFL and its formulation, BPDI against Caco-2 cells were tested using the 3-(4,5-dimethylthiazol-2-yl)-2,5-diphenyltetrazolium bromide (MTT) assay. Caco-2 cells at the logarithmic growth were seeded in 96-well plate at the concentration of […] and incubated in an atmosphere of 5% CO2 and 90% relative humidity at 37 °C for three days. After cells attachment, HBSS solution (negative control), paclitaxel (positive control, 25, 50, 75, and 100 μM), BFL (50, 75, 100, and 125 μM), and BPDI (containing BFL 50, 75, 100, and 125 μM) solutions were added into each well, respectively. After cells were treated for three hours, HBSS solution was removed, and cells were rinsed with PBS and incubated with 20 μL of MTT solution (0.5 mg/mL) for 4 h at 37°C and 5% CO2. Then the cells were shaken with 200 μL of DMSO for 10 min, and the absorbance was read on the microplate reader (SPECTROstar Omega, BMG LabTech GmbH, Ortenberg, Germany) at 570 nm. The viability rates were calculated by the equation: % = A/A0 × 100, wherein A was the average absorbance value of treatment group, and A0 was the average absorbance value of negative control group.

C[C@]12CC[C@H](O)C[C@H]1CC[C@@H]1[C@@H]2CC[C@]2(C)[C@@H](c3ccc(=O)oc3)CC[C@]12O [BFL, Bufalin]
main transport mechanism (Caco-2 cell monolayer; Caco-2 monolayer): passive diffusion | transport classification (Caco-2 cell monolayer; due to a Papp value of 1–10 × 10^−6 cm/s): moderate transport | Papp A→B at 120 min, 50 μM (in vitro; Caco-2, Papp AP→BL, 50 μM, 120 min, concentration series (Table 2), n = 3): 1.58 ± 0.32 ×10⁻⁶ cm/s | Papp A→B at 60 min, 75 μM (in vitro; Caco-2, Papp AP→BL, 75 μM, 60 min, time course (Table 3), n = 3): 1.52 ± 0.22 ×10⁻⁶ cm/s | Papp A→B at 120 min, 75 μM (in vitro; Caco-2, Papp AP→BL, 75 μM, 120 min, concentration series (Table 2), n = 3): 1.47 ± 0.08 ×10⁻⁶ cm/s | Papp A→B at 120 min, 75 μM (in vitro; Caco-2, Papp AP→BL, 75 μM, 120 min, time course (Table 3), n = 3): 1.36 ± 0.08 ×10⁻⁶ cm/s | Papp A→B at 180 min, 75 μM (in vitro; Caco-2, Papp AP→BL, 75 μM, 180 min, time course (Table 3), n = 3): 1.28 ± 0.02 ×10⁻⁶ cm/s | Papp A→B at 120 min, 100 μM (in vitro; Caco-2, Papp AP→BL, 100 μM, 120 min, concentration series (Table 2), n = 3): 1.46 ± 0.02 ×10⁻⁶ cm/s | Papp A→B at 120 min, 125 μM (in vitro; Caco-2, Papp AP→BL, 125 μM, 120 min, concentration series (Table 2), n = 3): 1.64 ± 0.12 ×10⁻⁶ cm/s | Papp B→A at 120 min, 50 μM (in vitro; Caco-2, Papp BL→AP, 50 μM, 120 min, concentration series (Table 2), n = 3): 1.37 ± 0.18 ×10⁻⁶ cm/s | Papp B→A at 60 min, 75 μM (in vitro; Caco-2, Papp BL→AP, 75 μM, 60 min, time course (Table 3), n = 3): 1.14 ± 0.28 ×10⁻⁶ cm/s | Papp B→A at 120 min, 75 μM (in vitro; Caco-2, Papp BL→AP, 75 μM, 120 min, concentration series (Table 2), n = 3): 1.32 ± 0.14 ×10⁻⁶ cm/s | Papp B→A at 120 min, 75 μM (in vitro; Caco-2, Papp BL→AP, 75 μM, 120 min, time course (Table 3), n = 3): 1.08 ± 0.17 ×10⁻⁶ cm/s | Papp B→A at 180 min, 75 μM (in vitro; Caco-2, Papp BL→AP, 75 μM, 180 min, time course (Table 3), n = 3): 0.99 ± 0.12 ×10⁻⁶ cm/s | Papp B→A at 120 min, 100 μM (in vitro; Caco-2, Papp BL→AP, 100 μM, 120 min, concentration series (Table 2), n = 3): 1.29 ± 0.1 ×10⁻⁶ cm/s | Papp B→A at 120 min, 125 μM (in vitro; Caco-2, Papp BL→AP, 125 μM, 120 min, concentration series (Table 2), n = 3): 1.35 ± 0.45 ×10⁻⁶ cm/s | Papp (in vitro; Caco-2, Papp value (range over concentrations/times, text), summary of Table 2 and Table 3): 1.46 to 1.62 ×10⁻⁶ cm/s | Papp (in vitro; Caco-2, apparent permeability coefficient (Papp) values (abstract), BFL in free or BPDI form): > 1 ×10⁻⁶ cm/s | viability at 180 min, 50 μM ([1]; Caco-2 cells, 50 μM (BPDI: containing BFL 50 μM), MTT): 102 ± 7.2% | viability at 180 min, 75 μM ([1]; Caco-2 cells, 75 μM (BPDI: containing BFL 75 μM), MTT): 100 ± 8.6% | viability at 180 min, 100 μM ([1]; Caco-2 cells, 100 μM (BPDI: containing BFL 100 μM), MTT): 99.1 ± 8.5% | viability at 180 min, 125 μM ([1]; Caco-2 cells, 125 μM (BPDI: containing BFL 125 μM), MTT): 98.9 ± 6.4% | viability at 180 min ([1]; Caco-2 cells, 50, 75, 100 and 125 μM, read-out: viabilities after treatment): > 95%

CC(=O)O[C@H]1C(=O)[C@@]2(C)[C@H]([C@H](OC(=O)c3ccccc3)[C@]3(O)C[C@H](OC(=O)[C@H](O)[C@@H](NC(=O)c4ccccc4)c4ccccc4)C(C)=C1C3(C)C)[C@]1(OC(C)=O)CO[C@@H]1C[C@@H]2O [Paclitaxel, paclitaxel]
viability at 25 µM ([1]; Caco-2 cells, 25 μM, 180 min, MTT): 65.3 ± 7.2% | viability ([1]; Caco-2 cells, 50 μM (BPDI: containing BFL 50 μM), 180 min, MTT): 43.5 ± 5.4% | viability ([1]; Caco-2 cells, 75 μM (BPDI: containing BFL 75 μM), 180 min, MTT): 34.8 ± 3.2% | viability ([1]; Caco-2 cells, 100 μM (BPDI: containing BFL 100 μM), 180 min, MTT): 30.5 ± 2.6%
